Values quoted from earlier work in patent publication US20240115695A1, “Method of Obtaining Betulin as an Adjuvant in a Vaccine Against Coronavirus SARS-COV-2” (BETUVAKS LIMITED LIABILITY COMPANY, priority 2020, published 2024).

How the values were obtained:
[1] = in vivo

SMILES	LD50 [1] [mg/kg]	MPC [1] [mg/m^3]	solubility of betulin
C1CCOC1 [THF, tetrahydrofuran]	2300	100	
C=C(C)[C@@H]1CC[C@]2(CO)CC[C@]3(C)[C@H](CC[C@@H]4[C@@]5(C)CC[C@H](O)C(C)(C)[C@@H]5CC[C@]43C)[C@@H]12 [betulin]			less than 1 μg/mL
